Results from US12252701B2, “Chimeric antigen receptor T cell therapy” (KITE PHARMA, INC., priority 2020, dated 2025).
Read-outs that look alike come from different tables or passages of the source.

How the values were obtained:
CAR-T cells = assay: CAR-T cell expansion assay (KIP-1 or CD3/CD28 stimulation); details: for % viabi.: KIP-1 stimulation
Protocol: 96-well plates were coated with 100 μl of KIP-1 antibody per well at 1 μg/ml in PBS and plates were incubated at 4° C. overnight. CAR-T cells were thawed and were rested in ImmunoCult expansion medium and incubated overnight at 37° C. Cells were then counted and resuspended at 2 million cells/ml and seed at 200,000 cells per well in 100 μl of expansion medium with 10 ng/ml recombinant IL2. For groups treated with KIP-1, 100 μl of expansion medium were added with 2× final drug dilutions. For CD3/CD28 treated groups, 100 μl of expansion media were added with 2× final drug dilutions containing 25 μl/ml of CD3/CD28 T cell activator from StemCell Technologies. Cells were then incubated at 37° C. After 4 days, cells were counted and diluted 1 to 8-fold in expansion media and then transferred to a 24-well plate. Cell counts were repeated at day 7 and transferred to T25 flasks. On day 11, all cells were harvested and counted.

CD19 CAR T cells = assay: CAR T cell cytokine production (Luminex) under CD19 K562, KIP-1 or CD2/3/28 stimulation; details: 72 h; for IC50: Homo sapiens, T-cell
Protocol: Cryopreserved healthy donor CLP CD19 CAR T cells were thawed and rested overnight in 100 U/ml of IL-2 at 1×10^6/ml. 2.5×10^5 CD19 CART cells were plated in 96-well RB plate wells in a total volume of 200 μl of R10 culture media. […] CD19 CART cell cytokine production was allowed to proceed through 72 hours in the presence of stimulator and JAKi or steroid. Following 72 h of culture, 100 μl of the cell supernatant of each well were harvested and stored at −80° C. for later Luminex/Bioplex-200 cytokine analysis. Briefly, stored supernatants were thawed and 50 μl of the sample was assayed for cytokines using a ThermoFisher Procarta Plex 19-plex human cytokine assay kit (ThermoFisher, Carlsbad, CA) according to kit manufacturer's instructions and detected using a BioRad Bioplex-200 instrument. The data points generated from the luminex cytokine assay were transferred to a GraphPad PRISM IC50 dose-response curve analysis to generate IC50 or potency values for the JAKi's and steroids tested.

Q: `CC[C@@H]1CN(C(=O)NCC(F)(F)F)C[C@@H]1c1cnc2cnc3[nH]ccc3n12` [upadacitinib] was tested. Which “% viabi.” value (CAR-T cells; 10 nM, Day 0) did it give?
A: 84%

Q: What about the “% viabi.” value (CAR-T cells; 10 nM, Day 4) of the same compound?
A: 85.2%

Q: And the “% viabi.” value (CAR-T cells; 10 nM, Day 8)?
A: 72.1%

Q: And the “% viabi.” value (CAR-T cells; 10 nM, Day 12)?
A: 72.7%

Q: What about the “% viabi.” value (CAR-T cells; 20 nM, Day 0) of the same compound?
A: 84%

Q: What about the “% viabi.” value (CAR-T cells; 20 nM, Day 4) of the same compound?
A: 82.1%

Q: What about the “% viabi.” value (CAR-T cells; 20 nM, Day 8) of the same compound?
A: 70.1%

Q: And the “% viabi.” value (CAR-T cells; 20 nM, Day 12)?
A: 74.8%

Q: And the “% viabi.” value (CAR-T cells; 40 nM, Day 0)?
A: 84%

Q: What about the “% viabi.” value (CAR-T cells; 40 nM, Day 4) of the same compound?
A: 79.3%

Q: And the “% viabi.” value (CAR-T cells; 40 nM, Day 8)?
A: 59.3%

Q: And the “% viabi.” value (CAR-T cells; 40 nM, Day 12)?
A: 73.8%

Q: What about the “% viabi.” value (CAR-T cells; 60 nM, Day 0) of the same compound?
A: 84%

Q: And the “% viabi.” value (CAR-T cells; 60 nM, Day 4)?
A: 67.9%

Q: What about the “% viabi.” value (CAR-T cells; 60 nM, Day 8) of the same compound?
A: 76.4%

Q: And the “% viabi.” value (CAR-T cells; 60 nM, Day 12)?
A: 68.9%

Q: And the “% viabi.” value (CAR-T cells; 80 nM, Day 0)?
A: 84%

Q: And the “% viabi.” value (CAR-T cells; 80 nM, Day 4)?
A: 70.9%

Q: And the “% viabi.” value (CAR-T cells; 80 nM, Day 8)?
A: 68.8%

Q: And the “% viabi.” value (CAR-T cells; 80 nM, Day 12)?
A: 62.5%

Q: And the “% viabi.” value (CAR-T cells; 100 nM, Day 0)?
A: 84%

Q: And the “% viabi.” value (CAR-T cells; 100 nM, Day 4)?
A: 59.3%

Q: What about the “% viabi.” value (CAR-T cells; 100 nM, Day 8) of the same compound?
A: 60.9%

Q: And the “% viabi.” value (CAR-T cells; 100 nM, Day 12)?
A: 61.7%

Q: What about the “concentration at and above which severe effects on expansion were seen” value (CAR-T cells; further dose titrations, depending on the mode of stimulation) of the same compound?
A: 20 to 40 nM

Q: And the IC50 (CD19 CAR T cells; read-out: Suppression of cytokine production, GMCSF (IC50), CD3/CD28 stimulation, 72 h)?
A: < 100 nM

Q: What about the IC50 (CD19 CAR T cells; read-out: Suppression of cytokine production, GMCSF (IC50), K562-CD19 stimulation, 72 h) of the same compound?
A: > 10000 nM

Q: And the IC50 (CD19 CAR T cells; read-out: Suppression of cytokine production, GMCSF (IC50), KIP-1 stimulation, 72 h)?
A: < 100 nM

Q: What about the IC50 (CD19 CAR T cells; read-out: Suppression of cytokine production, GzB (IC50), CD3/CD28 stimulation, 72 h) of the same compound?
A: < 100 nM

Q: And the IC50 (CD19 CAR T cells; read-out: Suppression of cytokine production, GzB (IC50), K562-CD19 stimulation, 72 h)?
A: 1030 nM

Q: And the IC50 (CD19 CAR T cells; read-out: Suppression of cytokine production, GzB (IC50), KIP-1 stimulation, 72 h)?
A: > 10000 nM

Q: What about the IC50 (CD19 CAR T cells; read-out: Suppression of cytokine production, IFNg (IC50), CD3/CD28 stimulation, 72 h) of the same compound?
A: > 10000 nM

Q: And the IC50 (CD19 CAR T cells; read-out: Suppression of cytokine production, IFNg (IC50), KIP-1 stimulation, 72 h)?
A: > 10000 nM

Q: And the IC50 (CD19 CAR T cells; read-out: Suppression of cytokine production, IL-2Ra (IC50), CD3/CD28 stimulation, 72 h)?
A: < 100 nM

Q: What about the IC50 (CD19 CAR T cells; read-out: Suppression of cytokine production, IL-2Ra (IC50), K562-CD19 stimulation, 72 h) of the same compound?
A: < 100 nM

Q: What about the IC50 (CD19 CAR T cells; read-out: Suppression of cytokine production, IL-2Ra (IC50), KIP-1 stimulation, 72 h) of the same compound?
A: < 100 nM

Q: What about the IC50 (CD19 CAR T cells; read-out: Suppression of cytokine production, IL-6 (IC50), CD3/CD28 stimulation, 72 h) of the same compound?
A: < 100 nM

Q: And the IC50 (CD19 CAR T cells; read-out: Suppression of cytokine production, IL-6 (IC50), KIP-1 stimulation, 72 h)?
A: < 100 nM

Q: What about the IC50 (CD19 CAR T cells; read-out: Suppression of cytokine production, IL-8 (IC50), CD3/CD28 stimulation, 72 h) of the same compound?
A: < 100 nM

Q: And the IC50 (CD19 CAR T cells; read-out: Suppression of cytokine production, IL-8 (IC50), K562-CD19 stimulation, 72 h)?
A: < 100 nM

Q: What about the IC50 (CD19 CAR T cells; read-out: Suppression of cytokine production, IL-8 (IC50), KIP-1 stimulation, 72 h) of the same compound?
A: < 100 nM

Q: What about the IC50 (CD19 CAR T cells; read-out: Suppression of cytokine production, IL-10 (IC50), CD3/CD28 stimulation, 72 h) of the same compound?
A: < 100 nM

Q: And the IC50 (CD19 CAR T cells; read-out: Suppression of cytokine production, IL-10 (IC50), K562-CD19 stimulation, 72 h)?
A: < 100 nM

Q: What about the IC50 (CD19 CAR T cells; read-out: Suppression of cytokine production, IL-10 (IC50), KIP-1 stimulation, 72 h) of the same compound?
A: < 100 nM

Q: And the IC50 (CD19 CAR T cells; read-out: Suppression of cytokine production, MCP-1 (IC50), CD3/CD28 stimulation, 72 h)?
A: < 100 nM

Q: What about the IC50 (CD19 CAR T cells; read-out: Suppression of cytokine production, MCP-1 (IC50), K562-CD19 stimulation, 72 h) of the same compound?
A: < 100 nM

Q: And the IC50 (CD19 CAR T cells; read-out: Suppression of cytokine production, MCP-1 (IC50), KIP-1 stimulation, 72 h)?
A: < 100 nM

Q: What about the IC50 (CD19 CAR T cells; read-out: Suppression of cytokine production, MIG (IC50), CD3/CD28 stimulation, 72 h) of the same compound?
A: < 100 nM

Q: What about the IC50 (CD19 CAR T cells; read-out: Suppression of cytokine production, MIG (IC50), K562-CD19 stimulation, 72 h) of the same compound?
A: < 100 nM

Q: And the IC50 (CD19 CAR T cells; read-out: Suppression of cytokine production, MIG (IC50), KIP-1 stimulation, 72 h)?
A: < 100 nM

Q: What about the IC50 (CD19 CAR T cells; read-out: Suppression of cytokine production, MIP-1a (IC50), CD3/CD28 stimulation, 72 h) of the same compound?
A: < 100 nM

Q: And the IC50 (CD19 CAR T cells; read-out: Suppression of cytokine production, MIP-1a (IC50), K562-CD19 stimulation, 72 h)?
A: < 100 nM

Q: What about the IC50 (CD19 CAR T cells; read-out: Suppression of cytokine production, MIP-1a (IC50), KIP-1 stimulation, 72 h) of the same compound?
A: 708 nM

Q: And the IC50 (CD19 CAR T cells; read-out: Suppression of cytokine production, MIP-1b (IC50), CD3/CD28 stimulation, 72 h)?
A: < 100 nM

Q: What about the IC50 (CD19 CAR T cells; read-out: Suppression of cytokine production, MIP-1b (IC50), K562-CD19 stimulation, 72 h) of the same compound?
A: < 100 nM

Q: And the IC50 (CD19 CAR T cells; read-out: Suppression of cytokine production, MIP-1b (IC50), KIP-1 stimulation, 72 h)?
A: 146 nM

Q: And the IC50 (CD19 CAR T cells; read-out: Suppression of cytokine production, Perforin (IC50), CD3/CD28 stimulation, 72 h)?
A: < 100 nM

Q: What about the IC50 (CD19 CAR T cells; read-out: Suppression of cytokine production, Perforin (IC50), K562-CD19 stimulation, 72 h) of the same compound?
A: < 100 nM

Q: What about the IC50 (CD19 CAR T cells; read-out: Suppression of cytokine production, Perforin (IC50), KIP-1 stimulation, 72 h) of the same compound?
A: < 100 nM

Q: What about the IC50 (CD19 CAR T cells; read-out: Suppression of cytokine production, TNFa (IC50), CD3/CD28 stimulation, 72 h) of the same compound?
A: < 100 nM

Q: And the IC50 (CD19 CAR T cells; read-out: Suppression of cytokine production, TNFa (IC50), K562-CD19 stimulation, 72 h)?
A: < 100 nM

Q: And the IC50 (CD19 CAR T cells; read-out: Suppression of cytokine production, TNFa (IC50), KIP-1 stimulation, 72 h)?
A: < 100 nM

Q: What about the “Suppression of cytokine production, IFNg (IC50)” value (CD19 CAR T cells; K562-CD19 stimulation) of the same compound?
A: Suppress

Q: And the “Suppression of cytokine production, IL-6 (IC50)” value (CD19 CAR T cells; K562-CD19 stimulation)?
A: Suppress
